From patent EP2686338B1, “FUNCTIONALIZED BIOMATERIALS FOR TISSUE REGENERATION” (Nanomed3d S.r.l., priority 2011, dated 2018)
“Also recorded” adds a separate entry of the source. Residues, ends and D or L forms follow the SMILES beside them.

Tests used:
murine NSCs [1] = experiment: Imaging and cell proliferation (MTS) assay on assembled scaffolds, murine NSCs; type: cell-based
Protocol: (§1) In vitro tests were performed as previously described (8), in order to assess whether the biomaterials (assembled hydrogels) obtained with the SAPs of the present invention influenced NSCs adhesion, survival and/or differentiation. SAPeptides (30 µl for each well at a concentration of 10 mg/ml) were assembled into 96 multiwells two hours before cell. Cells (at a concentration of 2x10^4 cells/cm^2) were seeded on the top-surface of each assembled scaffold. Initially, cells were cultured with basal medium supplemented with βFGF (10 ng/ml), added to enhance neuronal progeny differentiation. At 3 days in vitro (DIV), βFGF medium was replaced with Leukemia Inhibitory Factor (LIF, Chemicon) (20 ng/ml) and Brain Derived Neurotrophic Factor (BDNF, Peprotech) (20 ng/ml). Fresh medium was added every three days. For both viability and differentiation assays positive and negative controls consisted of Cultrex-BME® substrate (R&D systems) (1:100 dilution in basal medium) and untreated bottom well surfaces respectively. Cell viability was quantified via CellTiter 96® Aqueous Proliferation Assay (Promega) at 7 DIV as recommended in the Promega protocol. After calibrating the linear response between the cell number and absorbance values, proliferated cell populations were quantified (n=5) by using a Vmax microplate reader (Molecular Devices) at 490nm wavelength. Values, reported as means ± standard error of the mean, were blanked to their respective controls consisting of same substrates and cell culture media without cells.

murine NSCs [2] = experiment: Immunofluorescence of differentiated NSC progeny on scaffolds, murine NSCs; type: cell-based; details: 1% scaffold; compared to Cultrex positive control
Protocol: as §1
(§2) Immunofluorescence tests were performed for assaying the phenotypes of the differentiated human and murine NSC progenies. In the case of KLP and Ac-KLP just murine NSC have been used. Ac-KLP and KLP scaffolds were prepared at different concentrations in order to display three different stiffness values (viz. 100, 500 and 1000 Pa). This was done to assess the influence of scaffold concentration (and consequently its stiffness) over NSC differentiation. All the other peptides were tested at 1% v/w concentration instead. The following antibodies were used: rabbit polyclonal against GFAP (1:500, DakoCytomation) for astrocytes, mouse monoclonal against βIII-Tubulin (1:500, Covance) for neurons, mouse monoclonal against GalC (1:200, Chemicon) and O4 (1:200, Chemicon) for oligodendrocyes. Secondary Abs were Goat anti Mouse Alexa 488 (1:1000, Molecular Probes), Goat anti Mouse Cy3 (1:1000, Jackson Immunoresearch), Goat anti Rabbit Cy3 (1:1000, Jackson Immunoresearch). Cell nuclei were counterstained with DAPI (Molecular Probes). Quantitative analyses were performed by counting 100-300 cells for each of 9 randomly chosen fields over a total of 3 independent experiments. Phase contrast and fluorescence images of the adhering cells were acquired via Zeiss microscopes Axioplan 2 and ApoTome System at one week after seeding.

human NSCs [3] = experiment: Imaging and cell proliferation (MTS) assay on assembled scaffolds, human NSCs; type: cell-based
Protocol: as §1

[4] = test system: acute contusive spinal cord injury (SCI); experiment: Acute contusive spinal cord injury model, BBB locomotor rating; type: in vivo, Sprague-Dawley rats
Protocol: (§3) 20 female Sprague-Dawley rats weighting 200-250 gr (Charles River Laboratories) were randomly divided into two groups: 1) spinal cord injured animals treated with Ac-FAQ and 2) spinal cord injured animals treated with the saline solution (control group). Rats were anesthetized with an intraperitoneal injection of ketamine (80 mg/kg) and xylazine (10 mg/kg). After laminectomy at the T9-T10 level, the exposed spinal cord was lesioned (Figure 8A1) by a 10-gram rod dropped from a height of 25 mm by using a MASCIS Impactor device (WM Keck Center for Collaborative Neuroscience, Rutgers University), as previously described 33. Immediately after injury, animals were injected with Ac-FAQ (1% acqueous solution) or the saline solution using an Hamilton syringe held via a micromanipulator (Figure 8A2). The biomaterial or the distilled water was delivered into the lesion site at distances of 500 µm, and at each interval two injections of 0,5 µl each were made, for a total dose of 3 µl. After injection, the muscles were sutured and the skin was closed with wound clips. […]
Hindlimb recovery was assessed by using the Basso, Beattie, Bresnahan (BBB) Locomotor Rating Scale. Starting from 1 week post-injury, every 3-4 days each rat was observed and recorded with a digital video camera for 4 min in an open field. Rats were evaluated in double-blind experimental settings. […]

human NSCs [5] = experiment: Immunofluorescence of differentiated NSC progeny on scaffolds, human NSCs; type: cell-based; details: 1% scaffold; compared to Cultrex positive control
Protocol: as §1
as §2, with “Cell nuclei were counterstained with DAPI (Molecular Probes).” left out

[6] = test system: acute contusive spinal cord injury (SCI); experiment: Acute contusive spinal cord injury model, histology and morphometrical quantification; type: in vivo, Sprague-Dawley rats; details: 8 weeks after injury
Protocol: as §3
Quantitative analysis was performed on longitudinal sections of rat spinal cords, spanning between T7 and T12 and including the injury site (T9-T10).
The presence of axons expressing Gap-43 and βIII within the cyst was investigated. Gap-43 positive fibers were quantified and the relative value of GAP-43 immunopositive area was expressed as percentage of the total cyst area.
Injured tissue was quantified in seven-to-sixteen longitudinal sections per animal, depending on the cyst extent. […] Sections were stained with hematoxylin/eosin and images were captured (Axioplan2 Zeiss microscope) at 5x magnification, then single images were merged, converted into binary pictures and cavities into the injured area were quantified via Image J software (http://rsb.info.nih.gov/ij/). We measured also the whole injured tissue size. […]
Axon regeneration/sprouting, into the cyst area, was quantified on six longitudinal sections (spaced 160 µm) per animal via GAP-43 (1:200, Millipore) and Cy3-conjugated antibodies (1:1000, Jackson). […]

[7] = Rheology (frequency, time and strain sweeps); type: physicochemical
Protocol: Rheological properties of the self-assembling peptides of the invention were determined using a controlled stress TA Instruments AR-2000ex rheometer (TA Instruments). A cone-and-plate geometry (acrylic cone diameter, 20 mm; angle, 1°; truncation gap 34 µm) was used. Preliminary strain sweeps were performed for each sample to define the linear viscoelastic region, thus ensuring that moduli were independent of strain. Time sweeps, after addition of PBS (1x) were recorded at 25 C (angular frequency ω=1 Hz) and continued till G' plateaued. Frequency sweeps, both for peptide water solutions and for self-assembled scaffolds, were performed at 25 C with the instrument in oscillatory mode at controlled strain of 1 %. Final strain sweeps was performed at 1Hz oscillatory frequency and at 25 C: onset point of failure was calculated by linear interpolation and subsequent determination of the intersection of the G' modes within the linear region and at material failure respectively.

With `CC(=O)N[C@@H](Cc1ccccc1)C(=O)N[C@@H](C)C(=O)N[C@@H](CCC(N)=O)C(=O)N[C@@H](CCCNC(=N)N)C(=O)N[C@H](C(=O)N1CCC[C@H]1C(=O)N1CCC[C@H]1C(=O)NCC(=O)NCC(=O)NCC(=O)N[C@@H](CC(C)C)C(=O)N[C@@H](CC(=O)O)C(=O)N[C@@H](CC(C)C)C(=O)N[C@@H](CCCCN)C(=O)N[C@@H](CC(C)C)C(=O)N[C@@H](CC(=O)O)C(=O)N[C@@H](CC(C)C)C(=O)N[C@@H](CCCCN)C(=O)N[C@@H](CC(C)C)C(=O)N[C@@H](CC(=O)O)C(=O)N[C@@H](CC(C)C)C(=O)N[C@@H](CCCCN)C(N)=O)C(C)C` [Ac-FAQ, Ac-FAQRVPP-GGG-LDLKLDLKLDLK-CONH2] (Ac-FAQRVPPGGGLDLKLDLKLDLK-NH2) the “cell morphology, adhesion and spreading” value (murine NSCs [1]; 7 DIV on assembled hydrogels) was “spread and branched cells”, the “cell viability (MTS, cell population)” value (murine NSCs [1]; 7 DIV, scaffolds 10 mg/ml, vs control, P<0.005, n=5) was “cell population was bigger” and the number of neurons (murine NSCs [2]) was “significantly higher”. For the same compound, the number of oligodendrocytes (murine NSCs [2]) was “significantly higher”, the “cell morphology, adhesion and spreading” value (human NSCs [3]; 7 DIV on assembled hydrogels) was “spread and branched cells” and the “cell viability (MTS, cell population)” value (human NSCs [3]; 7 DIV, scaffolds 10 mg/ml, vs control, P<0.03, n=5) was “cell population was bigger”. For the same compound, the BBB score ([4]; 1% aqueous solution, 3 µl into lesion site right after injury, week 6,7 and 8 after injury, mean ± SEM) was 11.95 ± 0.30, the “hindlimb motor recovery in comparison to controls” value ([4]; BBB scale, from week 6 after injury, p<0.05) was “significant improvement; also recorded: significantly improved locomotor recovery” and the number of neurons (human NSCs [5]) was “significantly higher”. For the same compound, the number of oligodendrocytes (human NSCs [5]) was “significantly higher”, the “Average cumulative cyst area” value ([6]; hematoxylin/eosin longitudinal sections, not significant vs controls) was 28.30 ± 6.70 mm^2 and the “cavities size within the cyst, excluding strands of trabeculae” value ([6]; not significant vs control) was 16.77 ± 4.50 mm^2. The “average immunopositivity for GAP-43” value ([6]; p<0.05 vs saline-injected controls) was 15.46 ± 1.94 % of the whole cyst area, the “G' pre-assembling” value ([7]; average storage modulus of SAPeptide solution, 1% w/v, 1-100 Hz, before PBS) was 5.11 Pa and the “G' post-assembling” value ([7]; average storage modulus of jellified scaffold, 1% w/v, 1-100 Hz, after PBS) was 551.9 Pa. The “Onset point (% strain)” value ([7]; strain percentage at rupture, strain sweep at 1 Hz, 25 C) was 22.75%.
